Measured values taken from patent US9840481B2, “Allosteric modulators of nicotinic acetylcholine receptors” (MERCK SHARP & DOHME CORP., priority 2016, dated 2017).
Where two headings read alike, the source gives them in different places.

Target: T1, human α7 nAChR stably expressed in a HEK cell line (with human RIC-3) (Homo sapiens, UniProt P36544)
T1 construct: PrecisION hnAChR α7/RIC-3
Assay: Automated patch-clamp electrophysiology functional assay (Assay A), IonFlux HT, whole-cell population patch
Assay type: cell-based
Summary of the method: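 Whole-cell population patch clamp (IonFlux HT) used HEK cells stably co-expressing human α7 and RIC-3, held at −60 mV at room temperature. Compounds were applied alone (agonism) or with 40 μM acetylcholine (potentiation), three ascending concentrations per recording. Currents were quantified relative to a 40 μM acetylcholine reference response, giving EC50.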

[1] = automated patch-clamp electrophysiology functional assay (Assay A), potency class by EC50, read-out: α7 nAChR Potency
[2] = electrophysiology EC50, HEK cells expressing human α7/RIC-3, 40 μM acetylcholine, holding potential −60 mV, room temperature, read-out: α7 nAChR EC50

T1 sequence (P36544 23-502): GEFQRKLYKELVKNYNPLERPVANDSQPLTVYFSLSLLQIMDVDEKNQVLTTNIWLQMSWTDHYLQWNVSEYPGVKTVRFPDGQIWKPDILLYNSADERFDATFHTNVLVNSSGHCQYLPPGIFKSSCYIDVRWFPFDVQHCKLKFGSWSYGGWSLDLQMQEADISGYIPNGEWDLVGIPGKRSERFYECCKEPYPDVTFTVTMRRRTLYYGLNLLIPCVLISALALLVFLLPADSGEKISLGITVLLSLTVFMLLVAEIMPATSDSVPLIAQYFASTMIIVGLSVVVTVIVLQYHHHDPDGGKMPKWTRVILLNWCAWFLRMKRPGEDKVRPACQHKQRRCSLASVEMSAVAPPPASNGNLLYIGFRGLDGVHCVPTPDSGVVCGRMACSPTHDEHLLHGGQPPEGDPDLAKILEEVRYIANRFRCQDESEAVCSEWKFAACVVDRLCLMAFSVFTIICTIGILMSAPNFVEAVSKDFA

Row | SMILES | EC50 [1] [nM] | EC50 [2] [nM]
1 | NS(=O)(=O)c1ccc([C@@H]2C[C@H]2c2nc(-c3ccccc3)cs2)cc1 [Example K9] | 500 to 5000 | 670
2 | CC1(C)[C@@H](c2ccc(S(N)(=O)=O)cc2)[C@@H]1c1nc(C2CCC2)no1 [Example D7] | 100 to 500 | 
3 | NS(=O)(=O)c1ccc([C@@H]2C[C@H]2c2nc(-c3ccccc3)no2)cc1 [Example C5] | 100 to 500 | 120
4 | NS(=O)(=O)c1ccc([C@@H]2C[C@H]2c2ncc(C3CC3)o2)cc1 [Example K5] | 100 to 500 | 350
5 | CC1(C)[C@@H](c2ccc(S(N)(=O)=O)cc2)[C@@H]1c1nc(CC(F)(F)F)no1 [Example D14] | 500 to 5000 | 
6 | CC1(C)[C@@H](c2ccc(S(N)(=O)=O)cc2)[C@@H]1c1noc(-c2ccc(C#N)cc2)n1 [Example H12] | 500 to 5000 | 1200
7 | Cn1cc([C@H]2[C@H](c3ccc(S(N)(=O)=O)cc3)C2(C)C)nc1-c1cccc(F)c1 [Example 35, 4-{(1S,3S)-3-[2-(3-Fluorophenyl)-1-methyl-1H-imidazol-4-yl]-2,2-dimethylcyclopropyl}benzenesulfonamide] | 500 to 5000 | 4400
8 | NS(=O)(=O)c1ccc([C@@H]2[C@@H](c3ncc(C4CCCC4)o3)C2(F)F)cc1 [Example J11] | 500 to 5000 | 730
9 | CC1(C)[C@@H](c2ccc(S(N)(=O)=O)cc2)[C@@H]1c1noc(CC2CCCO2)n1 (stereo partly drawn) [Example I15] | 500 to 5000 | 
10 | CC1(C)[C@@H](c2ccc(S(N)(=O)=O)cc2)[C@@H]1c1nc(-c2cncc(C(F)(F)F)c2)no1 [Example D17] | 500 to 5000 | 2300
11 | CC1(C)[C@@H](c2ccc(S(N)(=O)=O)cc2)[C@@H]1c1nc(C2CCCCC2O)no1 (stereo partly drawn) [Example D32] | 500 to 5000 | 
12 | NS(=O)(=O)c1ccc([C@@H]2C[C@H]2c2noc(-c3cccc(F)c3)n2)cc1 [Example H15] | 100 to 500 | 190
13 | NS(=O)(=O)c1ccc([C@@H]2C[C@H]2c2nnc(C3CCCC3)s2)cc1 [Example G16] | 500 to 5000 | 
14 | CC1(C)[C@H](c2ccc(S(N)(=O)=O)cc2)[C@H]1c1nnc(-c2c(F)cccc2F)o1 [Example F1] | 500 to 5000 | 
15 | CC1(C)[C@H](c2ccc(S(N)(=O)=O)cc2)[C@H]1c1nc(CC2CC2)no1 [Example B10] | 500 to 5000 | 3000
16 | CC1(C)[C@H](c2ccc(S(N)(=O)=O)cc2)[C@H]1c1nnc(-c2ccccc2)[nH]1 [Example F5] | 500 to 5000 | 1000
17 | Cc1ccccc1-c1noc([C@@H]2C[C@H]2c2ccc(S(N)(=O)=O)cc2)n1 [Example C17] | 100 to 500 | 
18 | Cc1ncccc1-c1noc([C@@H]2C[C@H]2c2ccc(S(N)(=O)=O)cc2)n1 [Example D16] | 500 to 5000 | 1300
19 | CC1(C)[C@H](c2ccc(S(N)(=O)=O)cc2)[C@H]1c1nc(-c2cncc(F)c2)no1 [Example B2] | 500 to 5000 | 
20 | CC1(C)[C@H](c2ccc(S(N)(=O)=O)cc2)[C@H]1c1noc(C2CCCCC2)n1 [Example L16] | 500 to 5000 | 

Row | SMILES | EC50 [1] [nM] | EC50 [2] [nM]
21 | CC1(C)[C@@H](c2ccc(S(N)(=O)=O)cc2)[C@@H]1c1noc(C2CC2)n1 [Example I25] | 500 to 5000 | 710
22 | CC1(C)[C@@H](c2ccc(S(N)(=O)=O)cc2)[C@@H]1c1nc(C2CC(F)(F)C2)no1 [Example D18] | ≤ 100 | 95
23 | C#Cc1ccc(-c2nc([C@H]3[C@H](c4ccc(S(N)(=O)=O)cc4)C3(C)C)no2)cc1 [Example H11] | 500 to 5000 | 1900
24 | NS(=O)(=O)c1ccc(C2C(c3nc(C4CCCC4)no3)C2(Cl)Cl)cc1 (racemic) [Example M5] | 100 to 500 | 
25 | NS(=O)(=O)c1ccc([C@H]2C[C@@H]2c2cnc(-c3ccccc3)s2)cc1 [Example L22] | 500 to 5000 | 
26 | NS(=O)(=O)c1ccc([C@H]2C[C@@H]2c2nc(-c3ccccc3)no2)cc1 [Example A5] | 5000 to 50000 | 7300
27 | CC(C)(F)c1noc([C@H]2[C@H](c3ccc(S(N)(=O)=O)cc3)C2(F)F)n1 [Example D35] | 100 to 500 | 410
28 | CC1(C)[C@@H](c2ccc(S(N)(=O)=O)cc2)[C@@H]1c1nc(-c2cccnc2C(F)(F)F)no1 [Example D30] | 500 to 5000 | 1200
29 | NS(=O)(=O)c1ccc([C@@H]2C[C@H]2c2ncc(-c3ccccc3)o2)cc1 [Example 8, 4-[(1R,2R)-2-(5-Phenyl-1,3-oxazol-2-yl)cyclopropyl]benzenesulfonamide] | 100 to 500 | 500
30 | CC1(C)[C@@H](c2ccc(S(N)(=O)=O)cc2)[C@@H]1c1nnc(-c2c(F)cccc2F)o1 [Example G5] | 500 to 5000 | 1300
31 | NS(=O)(=O)c1ccc([C@@H]2C[C@H]2c2nsc(-c3cccc(F)c3)n2)cc1 [Example L10] | ≤ 100 | 88
32 | CC1(C)C(c2ccc(S(N)(=O)=O)cc2)C1c1cc(-c2cccc(F)c2)on1 (racemic) [Example M6] | 500 to 5000 | 2900
33 | CC1(C)[C@H](c2ccc(S(N)(=O)=O)cc2)[C@H]1c1nc(-c2cccc(Br)c2)no1 [Example A14] | 500 to 5000 | 
34 | CC1(C)[C@@H](c2ccc(S(N)(=O)=O)cc2)[C@@H]1c1noc(C2(c3cc(F)ccc3F)CCC2)n1 [Example I4] | 100 to 500 | 170
35 | CC(C)c1noc([C@@H]2[C@@H](c3ccc(S(N)(=O)=O)cc3)C2(C)C)n1 [Example B1] | 500 to 5000 | 1500
36 | CC1(C)[C@H](c2ccc(S(N)(=O)=O)cc2)[C@H]1c1nnc(-c2cccnc2C2CC2)o1 [Example F6] | 500 to 5000 | 
37 | NS(=O)(=O)c1ccc([C@@H]2C[C@H]2c2cn(-c3cccc(F)c3)nn2)cc1 [Example 26, 4-{(1R,2R)-2-[1-(3-Fluorophenyl)-1H-1,2,3-triazol-4-yl]cyclopropyl}benzenesulfonamide] | 500 to 5000 | 1600
38 | CC1(C)[C@@H](c2ccc(S(N)(=O)=O)cc2)[C@@H]1c1nc(-c2cncc(F)c2)no1 [Example D6] | 500 to 5000 | 820
39 | CCOc1nc([C@@H]2[C@@H](c3ccc(S(N)(=O)=O)cc3)C2(C)C)ns1 [Example L9] | 500 to 5000 | 
40 | CC1(C)[C@@H](c2ccc(S(N)(=O)=O)cc2)[C@@H]1c1noc(-c2cnc(SCC(F)(F)F)o2)n1 [Example I18] | 500 to 5000 | 1300

Row | SMILES | EC50 [1] [nM] | EC50 [2] [nM]
41 | CC1(C)[C@@H](c2ccc(S(N)(=O)=O)cc2)[C@@H]1c1noc(-c2ccc(F)c(OC(F)(F)F)c2)n1 [Example H4] | 500 to 5000 | 
42 | CC1(C)[C@H](c2ccc(S(N)(=O)=O)cc2)[C@H]1c1nc(C2CCCO2)no1 (stereo partly drawn) [Example B12] | 5000 to 50000 | 
43 | CC1(C)[C@@H](c2ccc(S(N)(=O)=O)cc2)[C@@H]1c1nc(-c2ccccn2)no1 [Example D4] | 5000 to 50000 | 6800
44 | CC1(C)[C@@H](c2ccc(S(N)(=O)=O)cc2)[C@@H]1c1noc(-c2ccccc2)n1 [Example H1] | 100 to 500 | 260
45 | CC1(C)[C@@H](c2ccc(S(N)(=O)=O)cc2)[C@@H]1c1nc(C2CCCC2)co1 [Example K17] | 100 to 500 | 130
46 | CC1(C)[C@@H](c2ccc(S(N)(=O)=O)cc2)[C@@H]1c1noc(C2CN(C(=O)C3CC3)C2)n1 [Example I23] | 500 to 5000 | 
47 | Cn1ccc(-c2nc([C@H]3[C@H](c4ccc(S(N)(=O)=O)cc4)C3(C)C)no2)c1 [Example I10] | 500 to 5000 | 
48 | CC(F)(F)c1nc([C@H]2[C@H](c3ccc(S(N)(=O)=O)cc3)C2(C)C)no1 [Example I16] | 100 to 500 | 350
49 | CC1(C)[C@H](c2ccc(S(N)(=O)=O)cc2)[C@H]1c1cn(-c2ccccc2)nn1 [Example 12, 4-[(1R,3R)-2,2-Dimethyl-3-(1-phenyl-1H-1,2,3-triazol-4-yl)cyclopropyl]benzenesulfonamide] | 500 to 5000 | 910
50 | CC1(C)[C@@H](c2ccc(S(N)(=O)=O)cc2)[C@@H]1c1nnc(-c2cc(F)ccc2C(F)(F)F)o1 [Example G6] | 500 to 5000 | 1100
51 | CC1(C)[C@H](c2ccc(S(N)(=O)=O)cc2)[C@H]1c1nc(C2CCc3cc(F)ccc32)no1 (stereo partly drawn) [Example B14] | 500 to 5000 | 1200
52 | CC1(C)[C@H](c2ccc(S(N)(=O)=O)cc2)[C@H]1c1nc(-c2ccc(F)cc2F)co1 [Example J2] | 500 to 5000 | 730
53 | CC1(C)C(c2nc(-c3ccccc3)no2)C1c1ccc(S(N)(=O)=O)cc1F (single isomer, unassigned) [Example M7] | 500 to 5000 | 
54 | CC1(C)[C@@H](c2ccc(S(N)(=O)=O)cc2)[C@@H]1c1noc(-c2cc3sccc3[nH]2)n1 [Example I22] | 5000 to 50000 | 5400
55 | CC1(C)[C@@H](c2ccc(S(N)(=O)=O)cc2)[C@@H]1c1nnc(-c2ccc(F)cc2F)o1 [Example 6, 4-{(1S,3S)-3-[5-(2,4-Difluorophenyl)-1,3,4-oxadiazol-2-yl]-2,2-dimethylcyclopropyl}benzenesulfonamide] | 500 to 5000 | 1100
56 | CC1(C)[C@@H](c2ccc(S(N)(=O)=O)cc2)[C@@H]1c1noc(CCC2CC2)n1 [Example I33] | 500 to 5000 | 
57 | CC(C)(C)c1coc([C@H]2[C@H](c3ccc(S(N)(=O)=O)cc3)C2(C)C)n1 [Example K7] | 500 to 5000 | 620
58 | CC(C)c1cnc([C@H]2[C@H](c3ccc(S(N)(=O)=O)cc3)C2(C)C)s1 [Example 21, 4-{(1S,3S)-2,2-Dimethyl-3-[5-(propan-2-yl)-1,3-thiazol-2-yl]cyclopropyl}benzenesulfonamide] | 100 to 500 | 390
59 | CC1(C)[C@@H](c2ccc(S(N)(=O)=O)cc2)[C@@H]1c1nnc(-c2ccccc2)s1 [Example G7] | 500 to 5000 | 1800
60 | CC1(C)[C@H](c2ccc(S(N)(=O)=O)cc2)[C@H]1c1noc(C2(C(F)(F)F)CC2)n1 [Example L19] | 500 to 5000 | 
